Where a name gives a salt, the structure may show the parent alone.
Legend:
TLR7 = target: T1, TLR7 (Homo sapiens, UniProt Q9NYK1); assay: In vitro human TLR7 binding reporter assay (HEK-Blue, NF-kB/AP1-inducible SEAP); assay type: cell-based; settings: activity range symbols
T1 construct: host or cells: HEK-Blue cells (human HEK) co-expressing TLR7 and an NF-kB/AP1-inducible SEAP reporter
T1 sequence (Q9NYK1 27-1049): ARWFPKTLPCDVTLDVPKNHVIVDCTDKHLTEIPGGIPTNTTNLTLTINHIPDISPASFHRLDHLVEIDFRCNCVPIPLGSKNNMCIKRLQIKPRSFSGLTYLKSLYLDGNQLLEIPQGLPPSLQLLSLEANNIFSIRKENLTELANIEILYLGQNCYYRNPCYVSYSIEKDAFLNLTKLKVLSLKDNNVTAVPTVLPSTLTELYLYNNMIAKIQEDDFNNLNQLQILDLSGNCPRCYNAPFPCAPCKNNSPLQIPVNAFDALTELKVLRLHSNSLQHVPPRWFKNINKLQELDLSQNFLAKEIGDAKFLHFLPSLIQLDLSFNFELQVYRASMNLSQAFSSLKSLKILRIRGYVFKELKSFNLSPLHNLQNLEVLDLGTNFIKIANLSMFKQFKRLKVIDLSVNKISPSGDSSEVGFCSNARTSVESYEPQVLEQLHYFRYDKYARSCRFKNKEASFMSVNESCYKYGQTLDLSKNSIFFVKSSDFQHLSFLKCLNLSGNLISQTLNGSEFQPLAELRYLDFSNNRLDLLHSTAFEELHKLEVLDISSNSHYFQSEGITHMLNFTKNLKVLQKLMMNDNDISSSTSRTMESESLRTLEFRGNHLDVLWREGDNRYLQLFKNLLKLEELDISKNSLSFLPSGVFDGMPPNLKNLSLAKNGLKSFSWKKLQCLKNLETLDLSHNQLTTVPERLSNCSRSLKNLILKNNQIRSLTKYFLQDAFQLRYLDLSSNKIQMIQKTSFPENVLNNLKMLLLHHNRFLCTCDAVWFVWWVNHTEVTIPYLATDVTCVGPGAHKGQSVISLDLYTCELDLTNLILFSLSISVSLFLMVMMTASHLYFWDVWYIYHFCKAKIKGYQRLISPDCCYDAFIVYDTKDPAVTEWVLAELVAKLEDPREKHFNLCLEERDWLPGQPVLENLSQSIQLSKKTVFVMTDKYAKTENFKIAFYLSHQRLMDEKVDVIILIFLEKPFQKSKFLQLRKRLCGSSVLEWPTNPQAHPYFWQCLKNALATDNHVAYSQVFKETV
How it was run: (§1)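 Reporter cells are plated at 15,000 per well and rested 24 h. Next day, test compounds or DMSO are dispensed, followed by 18 h incubation at 37 °C, 5% CO2.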

TLR8 = target: T2, TLR8 (Homo sapiens, UniProt Q9NR97); assay: In vitro human TLR8 binding reporter assay (HEK-Blue, NF-kB/AP1-inducible SEAP); assay type: cell-based
T2 construct: host or cells: HEK-Blue cells (human HEK) co-expressing TLR8 and an NF-kB/AP1-inducible SEAP reporter
T2 sequence (Q9NR97 27-1041): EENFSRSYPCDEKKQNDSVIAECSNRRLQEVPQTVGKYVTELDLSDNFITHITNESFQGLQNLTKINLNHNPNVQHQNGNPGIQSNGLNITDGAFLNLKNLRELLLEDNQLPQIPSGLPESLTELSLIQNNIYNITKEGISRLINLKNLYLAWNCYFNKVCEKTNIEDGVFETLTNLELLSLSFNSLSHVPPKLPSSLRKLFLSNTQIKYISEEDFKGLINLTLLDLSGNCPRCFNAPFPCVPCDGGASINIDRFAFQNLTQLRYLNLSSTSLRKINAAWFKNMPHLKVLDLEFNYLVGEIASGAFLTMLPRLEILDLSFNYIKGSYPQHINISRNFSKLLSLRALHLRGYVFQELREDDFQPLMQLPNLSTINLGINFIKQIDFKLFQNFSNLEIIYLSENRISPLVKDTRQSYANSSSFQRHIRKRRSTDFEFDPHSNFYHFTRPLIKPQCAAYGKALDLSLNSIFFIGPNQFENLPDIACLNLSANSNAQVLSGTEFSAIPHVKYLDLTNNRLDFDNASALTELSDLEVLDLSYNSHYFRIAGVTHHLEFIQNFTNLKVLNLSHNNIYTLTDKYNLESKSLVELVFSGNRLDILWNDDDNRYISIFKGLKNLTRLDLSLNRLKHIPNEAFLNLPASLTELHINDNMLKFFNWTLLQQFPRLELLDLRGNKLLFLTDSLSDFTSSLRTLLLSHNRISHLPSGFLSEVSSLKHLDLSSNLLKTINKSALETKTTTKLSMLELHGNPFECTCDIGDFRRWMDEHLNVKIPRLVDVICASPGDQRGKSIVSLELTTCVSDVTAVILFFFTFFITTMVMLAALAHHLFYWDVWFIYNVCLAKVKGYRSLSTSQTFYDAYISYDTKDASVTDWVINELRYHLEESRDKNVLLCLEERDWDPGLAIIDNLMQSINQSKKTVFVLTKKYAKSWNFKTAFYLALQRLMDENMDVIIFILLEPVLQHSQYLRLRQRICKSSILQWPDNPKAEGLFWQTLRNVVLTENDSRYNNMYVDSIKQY
How it was run: as §1

Row | Compound | EC50 (TLR7) [µM] | EC50 (TLR8; activity range symbols) [µM] | EC50 (TLR8; numeric bounds) [µM]
1 | CCN(Cc1nc2c(N)nc3cc(-c4cccs4)ccc3c2n1CCO)C(C)=O [Compound 482, N-{[4-amino-1-(2-hydroxyethyl)-7-(thiophen-2-yl)-1H-imidazo[4,5-c]quinolin-2-yl]methyl}-N-ethylacetamide] | > 100 | > 100 | –
2 | CCn1c(CN2CCCC2=O)nc2c(N)nc3cc(-c4cccs4)ccc3c21 [Compound 463, 1-{[4-amino-1-ethyl-7-(thiophen-2-yl)-1H-imidazo[4,5-c]quinolin-2-yl]methyl}pyrrolidin-2-one] | > 100 | > 100 | –
3 | CCC(=O)N(CC)Cc1nc2c(N)nc3cc(-c4ccn[nH]4)ccc3c2n1CCO [Compound 475, N-{[4-amino-1-(2-hydroxyethyl)-7-(1H-pyrazol-5-yl)-1H-imidazo[4,5-c]quinolin-2-yl]methyl}-N-ethylpropanamide] | > 100 | > 100 | –
4 | CCNCc1nc2c(N)nc3cc(-c4cc[nH]n4)ccc3c2[nH]1 [Compound 101, 2-[(Ethylamino)methyl]-7-(1H-pyrazol-3-yl)-1H-imidazo[4,5-c]quinolin-4-amine hydrochloride] | > 100 | > 100 | –
5 | CC(C)(C)OC(=O)NCc1nc2c(N)nc3cc(-c4cc[nH]n4)ccc3c2[nH]1 [Compound 142] | > 100 | > 100 | –
6 | Nc1nc2ccc(Cl)cc2c2[nH]c(CN3CCCC3=O)nc12 [Compound 141] | > 100 | > 100 | –
7 | CCNCc1nc2c(N)nc3cc(OC)ccc3c2[nH]1 [Compound 154] | > 100 | 20 to 100 | –
8 | Nc1nc2cc(-c3cccs3)ccc2c2c1nc(CN1CCCC1=O)n2CCO [Compound 469, 1-{[4-amino-1-(2-hydroxyethyl)-7-(thiophen-2-yl)-1H-imidazo[4,5-c]quinolin-2-yl]methyl}pyrrolidin-2-one] | > 100 | > 100 | –
9 | CCN(Cc1nc2c(N)nc3cc(Cl)c(Cl)cc3c2[nH]1)C(C)=O [Compound 159] | > 100 | > 100 | –
10 | NCc1nc2c(N)nc3cc(-c4cc[nH]n4)ccc3c2[nH]1 [Compound 131] | > 100 | > 100 | –
11 | CCNCc1nc2c(N)nc3cc(-c4cccs4)ccc3c2n1CCO [Compound 471, 2-{4-amino-2-[(ethylamino)methyl]-7-(thiophen-2-yl)-1H-imidazo[4,5-c]quinolin-1-yl}ethan-1-ol] | > 100 | > 100 | –
12 | CCn1c(CN2CCCC2=O)nc2c(N)nc3cc(-c4ccn[nH]4)ccc3c21 [Compound 466, 1-{[4-amino-1-ethyl-7-(1H-pyrazol-5-yl)-1H-imidazo[4,5-c]quinolin-2-yl]methyl}pyrrolidin-2-one] | > 100 | > 100 | –
13 | CCN(Cc1nc2c(N)nc3cc(-n4cccn4)ccc3c2n1CC)C(C)=O [Compound 479, N-{[4-amino-1-ethyl-7-(1H-pyrazol-1-yl)-1H-imidazo[4,5-c]quinolin-2-yl]methyl}-N-ethylacetamide] | > 100 | > 100 | –
14 | CCN(Cc1nc2c(N)nc3cc(-c4cccs4)ccc3c2n1CC)C(C)=O [Compound 472, N-{[4-amino-1-ethyl-7-(thiophen-2-yl)-1H-imidazo[4,5-c]quinolin-2-yl]methyl}-N-ethylacetamide] | > 100 | > 100 | –
15 | CCN(Cc1nc2c(N)nc3cc(-c4cc[nH]n4)ccc3c2[nH]1)C(=O)NC [Compound 128] | > 100 | > 100 | –
16 | CCC(=O)N(CC)Cc1nc2c(N)nc3cc(-c4cccs4)ccc3c2n1CC [Compound 480, N-{[4-amino-1-ethyl-7-(thiophen-2-yl)-1H-imidazo[4,5-c]quinolin-2-yl]methyl}-N-ethylpropanamide] | > 100 | > 100 | –
17 | CCN(Cc1nc2c(N)nc3cc(-c4cc[nH]n4)ccc3c2n1C)C(C)=O [Compound 121] | > 100 | > 100 | –
18 | CCN(Cc1nc2c(N)nc3cc(-c4cc[nH]n4)ccc3c2[nH]1)S(C)(=O)=O [Compound 124] | > 100 | > 100 | –
19 | CCC(=O)N(CC)Cc1nc2c(N)nc3cc(-c4ccn[nH]4)ccc3c2n1CC [Compound 473, N-{[4-amino-1-ethyl-7-(1H-pyrazol-5-yl)-1H-imidazo[4,5-c]quinolin-2-yl]methyl}-N-ethylpropanamide] | > 100 | > 100 | –
20 | CN(Cc1nc2c(N)nc3cc(-n4cccn4)ccc3c2[nH]1)S(C)(=O)=O [Compound 119] | > 100 | > 100 | –
21 | CC(=O)N(C)Cc1nc2c(N)nc3cc(-n4cccn4)ccc3c2[nH]1 [Compound 102, N-((4-Amino-7-(1H-pyrazol-1-yl)-1H-imidazo[4,5-c]quinolin-2-yl)methyl)-N-methylacetamide] | > 100 | > 100 | –
22 | CCN(Cc1nc2c(N)nc3cc(-c4ccn[nH]4)ccc3c2n1CC)C(C)=O [Compound 474, N-{[4-amino-1-ethyl-7-(1H-pyrazol-5-yl)-1H-imidazo[4,5-c]quinolin-2-yl]methyl}-N-ethylacetamide] | > 100 | > 100 | –
23 | CCC(=O)N(C)Cc1nc2c(N)nc3cc(-c4cc[nH]n4)ccc3c2[nH]1 [Compound 122] | > 100 | > 100 | –
24 | Nc1nc2cc(-c3ccc(Cl)nc3)ccc2c2[nH]c(CN3CCCC3=O)nc12 [Compound 153] | 20 to 100 | > 100 | –
25 | CCCS(=O)(=O)N(CC)Cc1nc2c(N)nc3cc(-c4cc[nH]n4)ccc3c2[nH]1 [Compound 460, N-{[4-amino-7-(1H-pyrazol-3-yl)-1H-imidazo[4,5-c]quinolin-2-yl]methyl}-N-ethylpropane-1-sulfonamide] | > 100 | – | > 62
